Measurements as given in EP0405998A1, “Antibiotic agents” (priority 1989, dated 1991).
In brackets after ≈: the same amount, converted by molar mass. Where two headings read alike, the source gives them in different places.

Key:
[1] = tested on: Pneumocystis carinii; test: Pneumocystis carinii infection in immunosuppressed mice, lung cyst count; assay type: in vivo, C3H/He mice; conditions: 2.0 mg/kg intraperitoneally twice daily, lung tissue
Method: In a representative study on the effectiveness of Compound IB, ten male C3H/He mice, weighing 22-24 gms. each, were immunosuppressed by the addition of dexamethasone to the drinking water (8.0 mg/L) for six weeks to induce the development of P. carinii infections. To enhance the infection the mice were also maintained on a low protein diet. At the beginning of the seventh week the mice were divided into two groups. Both groups continued to receive dexamethasone in the drinking water and low protein diet for the remainder of the study. Mice in Group I were injected intraperitoneally twice daily with 0.5 ml of a 10% dimethylsulfoxide (DMSO) solution as a vehicle control. Mice in Group II were injected intraperitoneally twice daily with 0.5 ml of sterile water containing 0.05 mg of compound IB (dissolved in DMSO, final concentration of DMSO is 10%, actual dose was 2.0 mg/kg). […]
At the end of the treatment period (a total of eight weeks immunosuppression) the animals were sacrificed and the lung tissue removed. The tissue was then processed to determine the number of cysts for each animal. Compound IB reduced the number of cysts by 84% as compared to the control animals. […]

[2] = tested on: Candida albicans; test: microbroth dilution assay, minimum fungicidal concentration (MFC); assay type: cell-based
Method: (§1) The activity may be seen in a microbroth dilution assay employing as medium a Yeast Nitrogen Base (Difco) with 1% dextrose (YNBD) as the medium. In carrying out the assay, Compound IB, IC-1 and IC-2 were solubilized in 10 percent dimethyl sulfoxide (DMSO) and diluted to 2560 µg/ml. The compounds were then diluted to 256 µg/ml in YNBD. 0.15 ml of the suspension was dispensed to the top row of a 96-well plate (each well containing 0.15 ml of YNDB) resulting in a drug concentration of 128 µg/ml. Two-fold dilutions were then made from the top row to obtain final drug concentrations ranging from 128 to 0.06 µg/ml.
(§2) The yeast cultures, maintained on Sabouraud dextrose agar were transferred to YM broth (Difco) and incubated overnight at 35°C with shaking (250 rpm). After incubation, each culture was diluted in sterile water to yield a final concentration of 1-5 x 10⁶ colony forming units (CFU)/ml.
(§3) 96-well microplates were inoculated using a MIC-2000 (Dynatech) which delivers 1.5 µl per well yielding a final inoculum per well of 1.5-7.5 x 10³ cells. The microplates were incubated at 35°C for 24 hours. The minimum inhibitory concentrations (MICs) were recorded as the lowest concentrations of drug showing no visible growth.
(§4) After recording the MIC, the plates were shaken to resuspend the cells. Thereafter, […] samples from the wells in the 96-well microplate were transferred to a single well tray containing Sabouraud dextrose agar. The inoculated trays were incubated 24 hours at 28°C and then read. The MFC is defined as the lowest concentration of drug showing no growth or less than 4 colonies per spot.

[3] = tested on: Candida tropicalis; test: as above; assay type: cell-based; conditions: read-out: Minimum Fungicidal Concentration
Method: as §1, §2, §3, §4

[4] = tested on: Candida parapsilosis; test: as above; assay type: cell-based; conditions: Lodderomyces parapsilosis, YNBD medium
Method: as §1, §2, §3, §4

[5] = tested on: red blood cells; test: titration/hemolysis assay, red blood cell lysis; assay type: cell-based, CD-1 female mice; conditions: highest drug concentration that did not lyse the red blood cells; 25°C, two hours; 5 percent dextrose
Method: Compound I or a component thereof has potential as a replacement for a known antifungal agent which while effective as an antifungal agent is of limited utility for having lytic effect on red blood cells at low dose levels. This property was discovered in a standard titration/hemolysis assay using fresh blood drawn from CD-1 female mice. In a representative assay, a concentration of Compound IB in the range of from 0.39 to 400 µg/ml in 5 percent dextrose and a drug free control were employed.
In carrying out the determination, the assay tubes prepared by mixing together 2 milliliters of appropriate drug dilution and 0.5 milliliter of red blood cell suspension were gently shaken to mix the contents and then the tubes were incubated at 25°C for two hours. At the end of this time, the tubes were examined visually for complete or partial red blood cell hemolysis and compared to a drug free control. […] The MLC for Compound IB was greater than 400 µg/ml.

Molecule	reduced the number of cysts as compared to the control animals ([1]; treatment period one week) [%]	MFC ([2]; read-out: Minimum Fungicidal Concentration, Candida albicans MY 1028, YNBD medium) [µg/mL]	MFC ([2]; read-out: Minimum Fungicidal Concentration, Candida albicans MY 1055, YNBD medium) [µg/mL]	MFC ([2]; read-out: Minimum Fungicidal Concentration, Candida albicans MY 1208, YNBD medium) [µg/mL]	MFC ([2]; read-out: Minimum Fungicidal Concentration, Candida albicans MY 1585, YNBD medium) [µg/mL]	MFC ([2]; read-out: Minimum Fungicidal Concentration, Candida albicans MY 1750, YNBD medium) [µg/mL]	MFC ([2]; read-out: Minimum Fungicidal Concentration, Candida albicans MY 1783, YNBD medium) [µg/mL]	MFC [3] [µg/mL]	MFC ([4]; read-out: Minimum Fungicidal Concentration, Candida parapsilosis MY 1009) [µg/mL]	MFC ([4]; read-out: Minimum Fungicidal Concentration, Candida parapsilosis MY 1010) [µg/mL]	minimum lytic concentration (MLC) [5]	reduced the number of cysts as compared to the control animals ([1]; treatment period two weeks) [%]
1-[N²-(10,12-dimethyl-1-oxotetradecyl)ornithine]-4-[4-(4-hydroxyphenyl)-2-aminobutanoic acid]-5-(3-hydroxyglutamine)echinocandin B [Compound IC]	66											
CCC(C)CC(C)CCCCCCCCC(=O)NC1CCC(O)NC(=O)C2C(O)C(C)CN2C(=O)C(C(O)CC(N)=O)NC(=O)C(CCc2ccc(O)cc2)NC(=O)C2CC(O)CN2C(=O)C(C(C)O)NC1=O (stereo not shown) [Compound IB, 1-[5-hydroxy N²-(10, 12-dimethyl-1-oxotetra-decyl)-ornithine]-4-[4-(4-hydroxyphenyl)-2-amino-butanoic acid]-5-(3-hydroxyglutamine) echinocandin B]		1 (≈ 0.97 µM)	0.5 (≈ 0.485 µM)	2 (≈ 1.94 µM)	1 (≈ 0.97 µM)	1 (≈ 0.97 µM)	2 (≈ 1.94 µM)	2 (≈ 1.94 µM)	16 (≈ 15.5 µM)	8 (≈ 7.76 µM)	greater than 400 µg/ml	84
C[C@@H]1[C@H](O)[C@@H](C)/C=C/C=C/C=C/C=C/C=C/C=C/C=C/[C@H](O[C@@H]2O[C@H](C)[C@@H](O)[C@H](N)[C@@H]2O)C[C@@H]2O[C@](O)(C[C@@H](O)C[C@@H](O)[C@H](O)CC[C@@H](O)C[C@@H](O)CC(=O)O[C@H]1C)C[C@H](O)[C@H]2C(=O)O [amphotericin B, reference compound]											12.5 µg/mL	
